Measured values reported in patent US20230115176A1 (Ra Pharmaceuticals, Inc., priority 2019, published 2023).
Where two headings read alike, the source gives them in different places.

Columns and labels:
[1] = target: T1, Human C5 (Homo sapiens, UniProt P01031); test: Surface plasmon resonance (SPR), compounds on immobilized human C5 (Example 2, Table 5); type: binding; conditions: lowest value where a range of compound concentrations were analyzed
T1 construct: purchased Complement Technology

[2] = target: T1, Human C5; test: Surface plasmon resonance (SPR), immobilized human C5 (Example 9, Table 18); type: binding
Excerpt: Morrison and Boyd in “Organic Chemistry”, 6th edition, Prentice Hall (1992)] and validated for proper structure by mass spectrometry.

[3] = target: purified human C5 (Homo sapiens, UniProt P01031); test: Red blood cell (RBC) hemolysis assay, optical, absorbance 412 nm (Example 10, Table 19); type: cell-based; conditions: antibody-sensitized sheep erythrocytes, […] human C5 depleted sera
Chain of purified human C5 (P01031 19-1676): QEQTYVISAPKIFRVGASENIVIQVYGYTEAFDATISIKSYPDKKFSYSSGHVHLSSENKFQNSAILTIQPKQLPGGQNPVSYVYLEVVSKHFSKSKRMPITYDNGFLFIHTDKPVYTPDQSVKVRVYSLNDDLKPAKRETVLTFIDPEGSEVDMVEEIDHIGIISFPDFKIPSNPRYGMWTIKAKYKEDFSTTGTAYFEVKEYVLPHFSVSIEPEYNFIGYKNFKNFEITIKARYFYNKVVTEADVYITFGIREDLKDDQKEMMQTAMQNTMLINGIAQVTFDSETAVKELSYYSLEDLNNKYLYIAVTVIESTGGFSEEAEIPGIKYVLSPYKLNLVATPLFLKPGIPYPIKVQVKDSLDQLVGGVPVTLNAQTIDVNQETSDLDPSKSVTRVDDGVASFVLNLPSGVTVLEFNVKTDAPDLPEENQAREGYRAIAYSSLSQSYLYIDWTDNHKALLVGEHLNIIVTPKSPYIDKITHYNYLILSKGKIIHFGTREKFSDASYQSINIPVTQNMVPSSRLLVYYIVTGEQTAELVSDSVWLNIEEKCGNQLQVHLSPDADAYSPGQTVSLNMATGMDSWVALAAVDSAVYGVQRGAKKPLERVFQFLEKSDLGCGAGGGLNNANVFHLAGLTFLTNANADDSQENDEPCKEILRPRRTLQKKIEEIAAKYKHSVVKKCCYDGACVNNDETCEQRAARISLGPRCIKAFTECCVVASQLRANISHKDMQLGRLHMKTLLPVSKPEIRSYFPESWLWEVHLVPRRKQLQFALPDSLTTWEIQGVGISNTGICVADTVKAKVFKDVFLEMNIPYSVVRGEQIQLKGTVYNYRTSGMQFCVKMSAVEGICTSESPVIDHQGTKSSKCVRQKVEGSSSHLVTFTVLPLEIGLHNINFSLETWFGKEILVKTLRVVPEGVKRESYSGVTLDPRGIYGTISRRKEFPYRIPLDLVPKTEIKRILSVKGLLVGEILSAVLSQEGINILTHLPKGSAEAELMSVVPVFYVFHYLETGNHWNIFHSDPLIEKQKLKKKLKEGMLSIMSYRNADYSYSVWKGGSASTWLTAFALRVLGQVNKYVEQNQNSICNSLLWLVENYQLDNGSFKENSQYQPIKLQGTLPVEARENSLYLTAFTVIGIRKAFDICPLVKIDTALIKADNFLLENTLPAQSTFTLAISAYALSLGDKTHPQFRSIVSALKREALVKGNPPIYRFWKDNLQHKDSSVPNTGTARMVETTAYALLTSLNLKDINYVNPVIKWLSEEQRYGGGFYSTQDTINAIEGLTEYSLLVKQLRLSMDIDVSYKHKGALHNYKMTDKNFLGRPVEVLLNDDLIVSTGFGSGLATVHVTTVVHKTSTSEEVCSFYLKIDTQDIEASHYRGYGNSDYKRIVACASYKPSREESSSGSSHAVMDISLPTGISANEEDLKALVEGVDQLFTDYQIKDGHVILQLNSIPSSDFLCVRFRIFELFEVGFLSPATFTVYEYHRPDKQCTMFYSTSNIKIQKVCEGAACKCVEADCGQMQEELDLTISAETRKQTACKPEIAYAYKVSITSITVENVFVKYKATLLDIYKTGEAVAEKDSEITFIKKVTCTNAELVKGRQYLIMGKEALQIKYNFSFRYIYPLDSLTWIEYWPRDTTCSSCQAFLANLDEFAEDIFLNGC

[4] = immobilized human C5, equilibrium dissociation constant, read-out: SPR C5 EQ KD
[5] = 0.5 nM purified human C5, absorbance 412 nm, read-out: RBC Hemolysis IC50
[6] = 0.5 nM human C5, read-out: IC50

T1 sequence (P01031 19-1676): as above

Q: How did the Kd [1] turn out when `O=C(Nc1ccc2c(c1)OC(F)(F)O2)N[C@@H](CO)c1ccccc1` [SM0099] was run?
A: The Kd was 5.7 µM.

Q: Which Kd [2, 4] does the source give for `COc1ccc(NC(=O)N(CCN2CCOCC2)Cc2cccc3c2ccn3CCN2CCOCC2)cc1OCCCC(C)C` [Compound C5INH-0438] here?
A: Its Kd is 2.78 µM.

Q: And the IC50 [3, 5]?
A: The IC50 was 3 µM.

Q: Which Kd [2, 4] does the source give for `COc1ccc(CNC(=O)Nc2ccc(OC)c(OCCCC(C)C)c2)c(O)c1` [Compound C5INH-0485] here?
A: Its Kd is 0.33 µM.

Q: What about the IC50 [3, 5] of the same compound?
A: The IC50 was 0.0469 µM.

Q: Which Kd [2, 4] does the source give for `COc1ccc(NC(=O)NCc2cc(F)ccc2O)cc1OCCCC(C)C` [Compound C5INH-0473] here?
A: The Kd was 0.069 µM.

Q: What about the IC50 [3, 5] of the same compound?
A: Its IC50 is 0.0215 µM.

Q: Which results are given for `COc1ccc(NC(=O)NCc2cccc(CO)c2)cc1OCCCC(C)C` [Compound C5INH-0342]?
A: Kd [2, 4]: 0.18 µM; IC50 [3, 5]: 1.54 µM

Q: For `COc1ccc(OC)c(CNC(=O)Nc2ccc(OC)c(OCCCC(C)C)c2)c1` [Compound C5INH-0296], which Kd [2, 4] is on record?
A: The Kd was 0.02 µM.

Q: And the IC50 [3, 5]?
A: Its IC50 is 0.68 µM.

Q: What does the source list for `COc1ccc(NC(=O)NCc2ccc3c(ccn3CC(=O)N(C)C)c2)cc1OCCCC(C)C` [Compound C5INH-0447]?
A: Kd [2, 4]: 0.204 µM; IC50 [3, 5]: 0.536 µM

Q: `COc1ccc(NC(=O)N[C@@H](CO)c2ccccc2)cc1C(O)CCCC(C)C` (some centres unmarked) [Compound C5INH-0367] was tested. Which Kd [2, 4] did it give?
A: Its Kd is 0.102 µM.

Q: And the IC50 [3, 5]?
A: Its IC50 is 0.475 µM.

Q: Which Kd [2, 4] does the source give for `COc1ccc(NC(=O)NCc2ccnc3c2ccn3CC(=O)N2CCN(C)CC2)cc1OCCCC(C)C` [Compound C5INH-0526] here?
A: The Kd was 0.027 µM.

Q: What about the IC50 [3, 5] of the same compound?
A: The IC50 was 0.0315 µM.

Q: Which Kd [2, 4] does the source give for `COc1ccc(NC(=O)NCc2ccnc3c2ccn3CCCN)cc1OCCCC(C)C` [Compound C5INH-0544] here?
A: Its Kd is 0.21 µM.

Q: And the IC50 [3, 5]?
A: The IC50 was 0.13 µM.

Q: What does the source list for `COc1ccc(NC(=O)N2CCCC2c2ccc(N(C)C)cc2)cc1OCCCC(C)C` (centres unmarked) [Compound C5INH-0396]?
A: Kd [2, 4]: 1.4 µM; IC50 [3, 5]: 2.33 µM

Q: For `COc1cc(CNC(C)=O)c(NC(=O)NCc2ccnc3[nH]ccc23)cc1OCCCC(C)C` [Compound C5INH-0504], which Kd [2, 4] is on record?
A: Its Kd is 0.316 µM.

Q: And the IC50 [3, 5]?
A: Its IC50 is 0.318 µM.

Q: For `COc1ccc(NC(=O)NCc2cccc3c2ncn3S(=O)(=O)c2ncc[nH]2)cc1OCCCC(C)C` [Compound C5INH-0500], which Kd [2, 4] is on record?
A: Its Kd is 0.334 µM.

Q: And the IC50 [3, 5]?
A: Its IC50 is 0.556 µM.

Q: For `COc1ccc(NC(=O)NCc2ccc(OCCN(C)C)cc2)cc1OCCCC(C)C` [Compound C5INH-0318], which Kd [2, 4] is on record?
A: Its Kd is 0.313 µM.

Q: What about the IC50 [3, 5] of the same compound?
A: Its IC50 is 0.251 µM.

Q: What does the source list for `COc1ccc(NC(=O)NCc2cccc3c2ccn3CC2CCCN2C)cc1OCCCC(C)C` (centres unmarked) [Compound C5INH-0519]?
A: Kd ([2]; SPR, human C5 immobilized, read-out: equilibrium dissociation constant for interaction with C5): < 0.02 µM; Kd [2, 4]: 0.0093 µM; IC50 [3, 5]: 0.0967 µM

Q: For `COc1ccc(NC(=O)NCc2ccnc3c2ccn3CC2=NCCCN2)cc1OCCCC(C)C` [Compound C5INH-0474], which Kd [2, 4] is on record?
A: Its Kd is 0.201 µM.

Q: What about the IC50 [3, 5] of the same compound?
A: The IC50 was 0.12 µM.

Q: What does the source list for `COc1ccc(NC(=O)NC(CO)c2ccc3[nH]ccc3c2)cc1OCCCC(C)C` (centres unmarked) [Compound C5INH-0353]?
A: Kd [2, 4]: 0.58 µM; IC50 [3, 5]: 0.328 µM

Q: `COc1ccc(NC(=O)NC(CO)c2cc(N)ccc2OC)cc1OCCCC(C)C` (centres unmarked) [Compound C5INH-0488] was tested. Which Kd [2, 4] did it give?
A: Its Kd is 0.1 µM.

Q: What about the IC50 [3, 6] of the same compound?
A: Its IC50 is < 0.02 µM.

Q: What about the IC50 [3, 5] of the same compound?
A: The IC50 was 0.012 µM.

Q: Which results are given for `COc1ccc(NC(=O)NCc2ncccc2OC)cc1OCCCC(C)C` [Compound C5INH-0417]?
A: Kd [2, 4]: 0.693 µM; IC50 [3, 5]: 1.13 µM

Q: How did the Kd [2, 4] turn out when `COc1ccc(NC(=O)NCc2ccnc(N3CCCC(O)C3)c2)cc1OCCCC(C)C` (centres unmarked) [Compound C5INH-0403] was run?
A: Its Kd is 0.22 µM.

Q: What about the IC50 [3, 5] of the same compound?
A: The IC50 was 2.99 µM.

Q: With `COc1ccc(NC(=O)NCc2cccc(F)c2O)cc1OCCCC(C)C` [Compound C5INH-0472] as the compound, how does the Kd [2, 4] read?
A: Its Kd is 0.082 µM.

Q: And the IC50 [3, 6]?
A: The IC50 was < 0.02 µM.

Q: And the IC50 [3, 5]?
A: Its IC50 is 0.016 µM.

Q: Which results are given for `COc1ccc(NC(=O)NCc2ccnc3c2ccn3CCCN2CCCC2)cc1OCCCC(C)C` [Compound C5INH-0490]?
A: Kd [2, 4]: 0.278 µM; IC50 [3, 5]: 0.144 µM

Q: `COc1ccc(NC(=O)NCc2ccc(CN3CCOCC3)cc2)cc1OCCCC(C)C` [Compound C5INH-0421] was tested. Which Kd [2, 4] did it give?
A: The Kd was 1.66 µM.

Q: And the IC50 [3, 5]?
A: Its IC50 is 4.59 µM.

Q: Which Kd [2, 4] does the source give for `COc1ccc(F)cc1CNC(=O)Nc1ccc(OC)c(OCCCC(C)C)c1` [Compound C5INH-0484] here?
A: Its Kd is 0.77 µM.

Q: And the IC50 [3, 5]?
A: Its IC50 is 0.15 µM.

Q: What does the source list for `COc1ccc(NC(=O)NCc2ccnc(OCCN(C)C)c2)cc1OCCCC(C)C` [Compound C5INH-0383]?
A: Kd [2, 4]: 0.102 µM; IC50 [3, 5]: 0.293 µM

Q: For `COc1ccc(NC(=O)NC(CO)c2cccc(CN)c2)cc1OCCCC(C)C` (centres unmarked) [Compound C5INH-0373], which Kd [2, 4] is on record?
A: The Kd was 0.293 µM.

Q: What about the IC50 [3, 5] of the same compound?
A: The IC50 was 1.52 µM.

Q: Which results are given for `COc1ccc(NC(=O)N[C@@H](CO)c2ccccc2)cc1NCCCC(C)C` [Compound C5INH-0336]?
A: Kd [2, 4]: 0.164 µM; IC50 [3, 5]: 0.473 µM

Q: For `COC(=O)CCn1ccc2c(CNC(=O)Nc3ccc(OC)c(OCCCC(C)C)c3)ccnc21` [Compound C5INH-0398], which Kd [2, 4] is on record?
A: Its Kd is 0.089 µM.

Q: What about the IC50 [3, 5] of the same compound?
A: The IC50 was 0.329 µM.

Q: `CNc1ccc(CNC(=O)Nc2ccc(OC)c(OCCCC(C)C)c2)cc1` [Compound C5INH-0443] was tested. Which Kd [2, 4] did it give?
A: Its Kd is 0.3 µM.

Q: And the IC50 [3, 5]?
A: The IC50 was 1.99 µM.

Q: `COc1ccc(NC(=O)NCc2ccnc3c2ccn3CCCN(C)C)cc1OCCCC(C)C` [Compound C5INH-0491] was tested. Which Kd [2, 4] did it give?
A: The Kd was 0.062 µM.

Q: And the IC50 [3, 5]?
A: The IC50 was 0.0835 µM.

Q: For `COc1cccc(C2CCCN2C(=O)Nc2ccc(OC)c(OCCCC(C)C)c2)c1` (centres unmarked) [Compound C5INH-0388], which Kd [2, 4] is on record?
A: Its Kd is 0.97 µM.

Q: And the IC50 [3, 5]?
A: The IC50 was 0.97 µM.

Q: How did the Kd [2, 4] turn out when `COCCNc1cc(CNC(=O)Nc2ccc(OC)c(OCCCC(C)C)c2)ccn1` [Compound C5INH-0390] was run?
A: The Kd was 0.257 µM.

Q: What about the IC50 [3, 5] of the same compound?
A: Its IC50 is 0.698 µM.

Q: Which results are given for `COc1ccc(NC(=O)NCc2ccnc3c2ccn3C)cc1OCCCC(C)C` [Compound C5INH-0361]?
A: Kd [2, 4]: 0.052 µM; IC50 [3, 5]: 2.35 µM
